According to patent US20190212325A1, “AN EX VIVO METHOD FOR TESTING CELLULAR RESPONSEIVENESS OF PRIMARY CELL POPULATIONS TO A DRUG OR COMBINATION OF DRUGS” (VIVIA BIOTECH, S.L, priority 2015, published 2019):

Assays:
primary CLL cells = assay: Ex vivo viability (Annexin V) and proliferation (CFDA) of primary CLL cells with AE, HS-5 stroma and CpG+IL-2, drug dose response; type: cell-based; conditions: 96 hours, 1.6% AE, 10% Human Serum, HS-5 100:1, CpG ODN + IL-2, 8 concentrations
primary MM cells = assay: Ex vivo viability (Annexin V) and proliferation (CFDA) of primary MM cells in whole BM with AE (autologous plasma), lenalidomide dose response; type: cell-based, human; conditions: 96 hours, 20% autologous plasma (AE)
Description: Patient whole BM was obtained and prepared as indicated above for each sample type. The Vybrant® CFDA SE Cell Tracer Kit (Molecular Probes) was used to measure cell proliferation as it has been disclosed in Example 3. After the CFDA protocol, all samples were resuspented in Culture Medium+Zell Shield (Labclinics)+L-Glu (Lonza)+20% FBS. Condition A samples stayed as is, condition B samples had different concentrations of autologous MM plasma plus RBCs added and condition C samples received 20% autologous plasma. The final cell concentration ranged from 20 cells/μl to 70 cells/μl. Alternatively, the autologous plasma can be replaced with a pool of three MM plasmas.
The CFDA labeled plasmatic cells were dispensed into 96-well plates (60 μl/well) and incubated at 37° C. with 5% CO2 during 72 or 96 hours. For analysis, MM cells (assessed by monoclonal antibodies) were tested for both viability (Annexin-V staining) and proliferation (CFDA).
After 96 hours of culture, the CFDA staining in conjunction with the immunophenotyping allowed for the analysis of both viability (Annexin-V negative) and proliferation (CFDA peaks) of the plasmatic cells, following the previously described methods using Vivia's ExviTech platform.
As the number of MM cells detected after 96 hours of incubation was too low in just a single well, a pooled well assay was performed, obtaining sample from 4 wells that have been treated in an identical manner. […] According to this, and based on the initial cell count, calculation of the sample volume was done for plating between 1000 and 4000 live pathological MM cells per well. During acquisition, sample from four wells was obtained for each treatment, thus obtaining a minimum of 4000 and a maximum of 16000 live plasmatic cells. The results of these experiments indicate that the use of patient's whole bone marrow plus 20% of autologous plasma, or a pool of at least 3 MM plasmas (Condition C from above) and the use of IMDM culture medium provided the best conditions to achieve better MM cells viability and higher proliferation rates (data not shown). Additionally, the presence of either of the two human stromal cell lines, HS27a and HS5, appeared to have a negative effect on both viability and proliferation.
Some drugs used to treat tumor cells preferentially target cells that are actively proliferating, acting as anti-proliferative agents. An example of this is the use of lenalidomide to treat patients diagnosed with MM. The efficacy of lenalidomide is difficult to assess in ex vivo assays against MM primary tumor cells, as these cells have very low levels of proliferation under the conditions that have traditionally been used. In this example, we tested BM samples from 10 patients diagnosed with MM in our ex vivo assay. AE (plasma only) was added to the culture medium to increase levels of proliferation and lenalidomide was tested across a concentration range of 0.03 to 30 μM.
Whole BM from 10 MM patients was cultured in IMDM medium supplemented with 1% antibiotic, 1% L-Glutamine plus an additional 20% of autologous plasma (AE), for 96 hours. Samples were processed and analyzed as outlined in Example 12. MM cell viability (Annexin V) and proliferation (CFDA) were tested against 4 concentrations of Lenalidomide.

In the case of CC[C@H](Nc1ncnc2[nH]cnc12)c1nc2cccc(F)c2c(=O)n1-c1ccccc1 [Idelalisib], the “effect on Non-Proliferative (NP) Live Tumor Cells (survival index)” value (primary CLL cells; NP fraction) is reported as “little effect” and the “inhibition of the proliferation, Proliferative (PR) cell fraction (survival index)” value (primary CLL cells; PR fraction) is reported as “potent inhibition of the proliferation is observed in the low nM range”.
For Nc1cccc2c1CN(C1CCC(=O)NC1=O)C2=O (centres unmarked) [lenalidomide], the “effect on NP MM cells (survival index)” value (primary MM cells; sample 1, 0.03 to 30 μM) was “no effect”, the “effect on PR MM cells (survival index)” value (primary MM cells; sample 1, 0.03 to 30 μM) was “no effect” and the PR cells eliminated (primary MM cells; sample 3) was “about 60%”. The NP cells eliminated (primary MM cells; sample 3, at a higher concentration) was “about 20%”, the “potency against the PR population” value (primary MM cells; sample 3, low concentration) was “very potent” and the “effect in the NP population” value (primary MM cells; sample 6) was “small effect”. The “effect on the PR population” value (primary MM cells; sample 6) was “no effect”, the “effect against the PR cells” value (primary MM cells; sample 7) was “very potent and effective” and the “effect on the NP cells” value (primary MM cells; sample 7, at a higher concentration) was “effects the NP cells”.
